`CC(O)CN(C)Cc1cc2c(=O)c(C(=O)NCc3ccc(Cl)cc3)cn(C)c2o1` (stereo unspecified) came in with a melting point of 152 °C.
Then `CCCc1nc2c(N)nc3ccccc3c2n1CCCCN(OC)S(C)(=O)=O`, with 178 to 188 °C; and `COc1ccc(S(=O)(=O)Nc2ccccc2NC(=O)c2ccccc2[N+](=O)[O-])cc1`, with 168 to 170 °C; and `COc1nc(NCCc2ccc(F)cc2)nc(-c2ccc(OC)c(S(=O)(=O)NC3CC3)c2)n1`, with 200 to 201 °C.
Then `CCOC(=O)[C@@H]1C[C@@H](O)CN1S(C)(=O)=O`, with 111 to 113 °C; and `COC(=O)c1cc(Cl)c2cccc(OC)c2n1`, with 139 to 141 °C.
The compound `CCc1nc(-c2cccc(C#N)c2)c(-c2ccnc(N)c2)s1` registered a melting point of 178 to 179 °C.
Compound `Nc1c2c(=O)c3ccccc3c(=O)c2c(N)c2c(=O)n(CCCO)c(=O)c12` returned a melting point of 261 to 262 °C.
The compound `CN(C)C(=O)CN1CCc2ccc([N+](=O)[O-])cc2CC1` yielded a melting point of 94 to 96 °C.
The result for `CC(C)c1ccc(NC(=O)N(C)C2N(C)C(c3ccc(F)cc3)=NC2(C(F)(F)F)C(F)(F)F)cc1` (stereo unspecified) reads 203 to 204 °C; that for `CNC1([C@@H]2CCN(c3ccc4c(=O)c(C(=O)O)cn([C@@H]5C[C@@H]5F)c4c3OC)C2)CC1`, 213 to 215 °C; that for `CNc1ncnc2c1ncn2CCCN1CCN(c2ccccc2)CC1`, 162 to 163 °C.
`NC(=O)c1cccc(CSCCNC(=O)c2c(Cl)cccc2Cl)c1`: the melting point was in the range of 148 to 150 °C.
The result for `CCOC(=O)c1ccc2cc(Oc3cccc([N+](=O)[O-])c3)ccn2c1=O` reads 161 to 163 °C; that for `CN(C)CCCNC(=O)c1ccccc1NS(=O)(=O)c1cccc(C(F)(F)F)c1`, 116 to 123 °C.
Then `C#CCNC(=NCCSCc1csc(NC(=N)N)n1)NC#N`, with 146 to 148 °C; and `CCC(NC(C)=O)c1ccc(CN2CCN(c3ccccc3)CC2)cc1` (stereo unspecified), with 109 to 110 °C.
Compound `COc1cc2cc3c(N)c(C(N)=O)sc3nc2cc1OC` had a melting point of 278 to 280 °C.
Then `O=c1c2cc(F)c(N3CCCC3)c(F)c2n(C2CC2)c(=O)n1O`, with 228 to 230 °C; and `Oc1ccc2ccc(C(O)C(F)(F)F)cc2c1` (stereo unspecified), with 174 to 175 °C.
Then `CC(=O)OCc1c(Br)cccc1N1Cc2cc(C(C)(C)C)ccc2C1=O`, with 176 to 178 °C.
Then `CN1CCCCC(c2cccc(O)c2)C1=O` (stereo unspecified), with 188 to 191 °C.
In the case of `C[C@H]1CCCC(C)(C)[C@]1(C)C(=O)c1ccc(F)cc1`, the melting point was in the range of 49 to 51 °C.
Then `COc1ccc([N+](=O)[O-])c2c1CCC(C(=O)Nc1ccc(N3CCOCC3)cc1)C2` (stereo unspecified), with 251 to 253 °C; and `Cc1cccc(NP(N)(N)=O)c1`, with 159 to 162 °C; and `C[C@]12CCC3=C4CCC(=O)C=C4CC[C@H]3[C@@H]1CCC21OCCC1O` (stereo partly specified), with 180 °C.
Then `CC(Oc1ncn(-c2ccc(Br)cc2)n1)C(=O)NC1CC1` (stereo unspecified), with 170 to 172 °C; and `Cc1oc(-c2ccccc2)nc1/C=C/c1ccc(COc2ccccc2CC(=O)O)cc1`, with 189 to 190 °C.
Then `Cc1ccc(N2C(=O)C(O)=C(C(=NOCC(=O)O)c3ccc(C(C)C)cc3)C2c2ccc(C(C)C)cc2)nn1` (stereo unspecified), with 234 °C; and `CCCCCC#CCC(Cc1cccnc1)(C(=O)NO)S(=O)(=O)c1ccc(OC)cc1` (stereo unspecified), with 146 °C; and `C=C1[C@@H](NC(=O)C(F)(F)F)CC(O)O[C@H]1C` (stereo partly specified), with 168 to 170 °C.
In turn, `O=C(O)COc1ccc2c(c1)-c1nc(SCC(c3ccccc3)c3ccccc3)sc1CC2` displayed a melting point of 165 to 167 °C.
Then `CCNc1nc(SC)ncc1CNc1cc(OC)cc(OC)c1Cl`, with 116 to 118 °C; and `COc1cc(NS(=O)(=O)c2ccc(C)cc2)cc(OC)c1`, with 103 to 104 °C.
Then `CSc1ccc(-n2c(-c3ccc(Cl)cc3)nc(SC)c(C#N)c2=O)cc1`, with 206 to 207 °C; and `Cn1ccnc1Sc1ccc(Cl)cc1N`, with 127 to 129 °C; and `CCOC(=O)C1C(C#N)C1(C)C` (stereo unspecified), with 69 °C.
The result for `Cc1nc2cccc(OCC=CCN3CCN(C4c5ccccc5CCc5ccccc54)CC3)c2s1` reads 114 °C.
`O=S(=O)(Nc1cccc(CCOCc2ccc(-c3ccc(OC(F)(F)F)cc3)cc2F)c1)C(F)(F)F` showed a melting point of 114 to 115 °C.
The result for `N#Cc1cc(/C=C/C(c2cc(Cl)c(Cl)c(Cl)c2)C(F)(F)F)ccc1-n1cnc(NC(=O)C2CC2)n1` (stereo unspecified) reads 109 to 112 °C; that for `CCOCC(=NO)C(C)(C)NCCCNC(C)(C)C(Cn1ccnc1[N+](=O)[O-])=NO`, 122 to 123 °C; that for `COc1ccc(SC(=C2NCCCS2)[N+](=O)[O-])cc1`, 160 to 162 °C.
`COc1ccc(Cl)cc1-n1c(N(C)C)nc2cc(C(F)(F)F)ccc21` yielded a melting point of 230 to 234 °C.
Turning to `Cc1nc2c(-c3cccc(N4CCC(N5CCCC5)CC4)c3)cnn2c(N)c1-c1ccc(F)cc1`, the melting point lay within 244 to 249 °C.
For the compound `O=C(NO)c1cnc(N2CCN(S(=O)(=O)c3ccc(C(=O)Nc4ccc(Cl)c(-c5ccccn5)c4)cc3Cl)CC2)nc1`, the melting point was 159 °C.
The result for `COc1cccc(NC(=O)N(C)Cc2cccc3c2C(=O)N(C2CCC(=O)NC2=O)C3=O)c1` (stereo unspecified) reads 160 to 162 °C; that for `Cc1nc(-c2n[nH]c(Cc3ccccc3)n2)sc1C(=O)NCc1ccccc1`, 235 to 237 °C; that for `COc1cc(N2CCN(C)CC2)ccc1-c1nc2c(N[C@H]3[C@@H](C(N)=O)[C@@H]4C=C[C@H]3C4)ccnc2[nH]1`, 185 to 195 °C.
The result for `O=C(O)/C=C/c1ccc(OCCOC2CC2)cc1Oc1ncc(C(F)(F)F)cc1Cl` reads 147 to 150 °C.
The result for `NCCSc1nc(-c2ccccc2)c(-c2ccccc2)[nH]1` reads 152 to 154 °C.
For `Cc1ncc(C#N)c(Nc2ccc3[nH]ccc3c2C)c1-c1cc2cc(C=O)ccc2o1`, the melting point was in the range of 168 to 169 °C.
`CC(=O)Nc1c(Cl)cc(C(C)=O)c2c1OCCO2` returned a melting point of 181 to 182 °C.
The result for `Cc1csc2[nH]c(=O)nc(-c3ccccc3F)c12` reads 258 to 261 °C; that for `CCOC(=O)c1c(-c2ccc(F)cc2)cc(-c2cccc3ccccc23)nc1C(C)C`, 113 to 115 °C.
The result for `CC1(c2cccc(S(N)(=O)=O)c2)OCCO1` reads 155 to 157 °C; that for `CCOc1cc2c(cc1OCC)[C@@H]1CCCC[C@@H]1N=C2c1ccc(Cl)nc1` (racemic), 123 to 126 °C.
Turning to `O=C(O)c1cc(OCc2ccccc2)c(Cc2ccccc2)c(S(=O)(=O)Cl)c1`, the melting point was 164 to 166 °C.
Then `COc1ccc(C(=O)N[C@H](Cc2ccc(C(F)(F)F)cc2)[C@@H](O)c2ccc(F)cc2)cc1` (racemic), with 192 to 193 °C.
Then `Nc1ccc(S(=O)(=O)CCO)cc1O`, with 115 to 117 °C.
The result for `Cn1c(=O)c(-c2c(Cl)cccc2Cl)cc2cnc(NCc3cccnc3)nc21` reads 224 to 226 °C.
The compound `COC(=O)C=Cc1cccc(NC(=O)c2cccn2C)c1` came in with a melting point of 89 to 90 °C.
The result for `CCC(CC)(OC)c1ccc(Cl)c2nc3n(c12)CCCN3c1ccc(Cl)cc1Cl` reads 124 to 125 °C; that for `O=[N+]([O-])c1ccc2nc(Cl)nc(-c3ccccc3Cl)c2c1`, 228 °C.
As to `Cc1cc(C)cc(OCC(O)CO)c1` (stereo unspecified), the melting point was 47 to 49 °C.
Then `Fc1ccccc1-c1ccc(Cl)nn1`, with 95 to 96 °C; and `Cn1cc(S(C)(=O)=O)c(=O)c2ccc(F)cc21`, with 222 to 224 °C; and `COCOc1nn(-c2ccccc2)cc1/C=C/c1csc(C(C)(C)C)n1`, with 112 to 113 °C.
As for `C[Si](C)(C)CCOC(=O)c1cccc(NC(=O)NCC(=O)O)c1`, the melting point was 173 °C.
The result for `CC(=O)OCC(=O)NCc1nc(-c2csc(N=C(N)N)n2)cs1` reads 182 to 183 °C.
The result for `Cn1nc(-c2ncc(Cl)cc2F)c(I)c1OC(F)F` reads 77 to 78 °C; that for `CCOC(=O)C1=C(C)N(Cc2ccccc2)C(C)=C(C(=O)OCC)C1c1ccc(Br)cc1`, 168 to 169 °C.
The result for `CC(C)(C)c1ccc(S(=O)(=O)NC(=O)C(Oc2ccc3c(c2)C(=O)NC3=O)c2ccc3c(c2)OCO3)cc1` (stereo unspecified) reads 215 °C; that for `O=c1n(Cc2ccc([N+](=O)[O-])cc2)c2ccc(Cl)cc2n1C1CCCCC1`, 139 °C; that for `COc1cc(C(=O)Nc2ccc(N3CCCC3)cc2C(C)=O)ccc1OCc1ccccc1`, 152 to 154 °C.
Compound `N#CC1c2ccccc2Oc2ccccc21` showed a melting point of 97 to 98 °C.
Then `Nc1nc(SC2C=CCCC2)c2ncn(C3C=CC(CO)C3)c2n1` (stereo unspecified), with 138 to 140 °C; and `O=S(=O)(NCc1cccnc1)c1ccc(Br)s1`, with 125 °C; and `NN(Cc1nccs1)C1CCCN(C(=O)c2ccc(Nc3nccc(Nc4ccc(F)cc4)n3)cc2)C1` (stereo unspecified), with 160 to 165 °C.
In turn, `Cc1[nH]c(-c2ccccc2)c2c1C(c1ccccc1)=NCC(=O)N2` came in with a melting point of 310 to 312 °C.
The result for `Cc1nc2sc([N+](=O)[O-])cc2c(=O)n1-c1ccc([N+](=O)[O-])cc1Cl` reads 166 to 168 °C.
The result for `Cc1cccc(-c2[nH]c(C(C)C)nc2-c2cccc(-c3ccc(C(=O)NC4CCOCC4)cc3)c2)n1` reads 140 °C.
The result for `COC(=O)c1cc2cc(C)ccc2nn1` reads 170 to 172 °C; that for `COc1cc(OCCCN2CCc3cc(OC)c(OC)cc3C2)ccc1NC(=O)c1cccc2c(=O)c3cccc(F)c3[nH]c12`, 152 °C; that for `CC(C)(C)c1ccc(C(=O)Nc2ccc(OCC(=O)O)cc2)cc1`, 179 to 181 °C.
Compound `CCOC(=O)N1CCc2nc3cccc(Cl)c3c(C)c2CC1` gave a melting point of 138 °C.
The result for `CCCCCCCCCCCCCCOc1ccc(CNc2ccccc2CO)cc1` reads 72 to 75 °C.

Source of the values: a melting point compilation (Tetko et al.; mined from patent text by program, amines drawn as free bases though some values may be those of a salt).
